Measurements: patent US8697694B2, “Substituted pyridine and pyrimidine derivatives and their use in treating viral infections” (priority 2008, dated 2014)

test system: HCV replicon cells; test: Cell-based HCV replicon assay (replicon RNA level by real time PCR, Taqman); details: Hepatitis C virus, 72 h, HCV replicon cells, replicon RNA level by real time PCR, harvested day 3; read-out: EC90 (μM) range
Method in brief: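 HCV replicon cells treated 3 days with 10 serial 2-fold compound dilutions (top 25 μM to 1 μM; 0.5% DMSO, 10% FBS). Replicon RNA quantified by multiplex Taqman RT-PCR (NS5B amplicon, GAPDH control); EC50 and EC90 = concentrations giving ΔCT of 1 and 3.2 over baseline.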

SMILES | EC90 [µM]
Cc1nc(N[C@H](C)C2CC2)nc(N[C@@H]2C[C@H](CO)[C@@H](O)C2(C)O)c1-c1nc2cnccc2s1 (stereo partly drawn) [Example 1384] | < 0.5
CCC1(O)[C@H](O)[C@@H](CO)C[C@H]1Nc1nc(NCC2CC2)nc(C)c1-c1nc2cnccc2s1 (stereo partly drawn) [Example 1385] | < 0.5
CCCc1nccc2sc(-c3c(C)nc(N[C@H](C)C4CC4)nc3N[C@@H]3C[C@H](Cn4ccnn4)[C@@H](O)[C@H]3O)nc12 [Example 1386] | < 0.5
CCCc1nccc2sc(-c3c(C)nc(N[C@H](C)C4CC4)nc3N[C@@H]3C[C@H](CNS(C)(=O)=O)[C@@H](O)[C@H]3O)nc12 [Example 1387] | < 0.5
CCCc1nccc2sc(-c3c(C)nc(N[C@H](C)C4CC4)nc3N[C@@H]3C[C@H](CNC(=O)OC)[C@@H](O)[C@H]3O)nc12 [Example 1388] | < 0.5
CCCc1nccc2sc(-c3c(C)nc(N[C@H](C)C4CC4)nc3N[C@@H]3C[C@H](CN(C)S(C)(=O)=O)[C@@H](O)[C@H]3O)nc12 [Example 1389] | < 0.5
COC(=O)N(C)C[C@H]1C[C@@H](Nc2nc(NCC(F)(F)F)nc(C)c2-c2nc3ccccc3s2)[C@H](O)[C@@H]1O [Example 1390] | 0.5 to 5
CCN(C[C@H]1C[C@@H](Nc2nc(NCC(F)(F)F)nc(C)c2-c2nc3ccccc3s2)[C@H](O)[C@@H]1O)C(=O)OC [Example 1391] | < 0.5
CCN(C[C@H]1C[C@@H](Nc2nc(NCC(F)(F)F)nc(C)c2-c2nc3ccccc3s2)[C@H](O)[C@@H]1O)S(C)(=O)=O [Example 1392] | < 0.5
CCN(C[C@@H]1C[C@@H](Nc2nc(NCC(F)(F)F)nc(C)c2-c2nc3ccccc3s2)[C@H](O)[C@@H]1O)S(C)(=O)=O [Example 1393] | 0.5 to 5
Cc1nc(NCC(F)(F)F)nc(N[C@@H]2C[C@@H](CN(CC3CC3)S(C)(=O)=O)[C@@H](O)[C@H]2O)c1-c1nc2ccccc2s1 [Example 1394] | 0.5 to 5
Cc1nc(NCC(F)(F)F)nc(N[C@@H]2C[C@H](CN(CC3CC3)S(C)(=O)=O)[C@@H](O)[C@H]2O)c1-c1nc2ccccc2s1 [Example 1395] | < 0.5
Cc1nc(NCC(F)(F)F)nc(N[C@@H]2C[C@H](CN3CCCS3(=O)=O)[C@@H](O)[C@H]2O)c1-c1nc2ccccc2s1 [Example 1396] | < 0.5
Cc1nc(N[C@H](C)c2ccc(OC(F)(F)F)cc2)nc(N[C@@H]2C[C@H](CO)[C@@H](O)[C@@]2(C)O)c1-c1nc2cnccc2s1 [Example 1397] | < 0.5
Cc1nc(NC2CC2)nc(N[C@@H]2C[C@H](C(C)O)[C@@H](O)[C@H]2O)c1-c1nc2c(C)nccc2s1 (stereo partly drawn) [Example 1398] | < 0.5
Cc1nc(N[C@H](C)c2ccc(OC(F)(F)F)cc2)nc(N[C@@H]2C[C@H](C(C)O)[C@@H](O)[C@H]2O)c1-c1nc2c(C)nccc2s1 (stereo partly drawn) [Example 1399] | < 0.5
Cc1nc(NCC(F)(F)F)nc(N[C@@H]2C[C@H](CN3CCOC3=O)[C@@H](O)[C@H]2O)c1-c1nc2ccccc2s1 [Example 1400] | < 0.5
Cc1nc(N[C@H](C)c2ccc(OC(F)(F)F)cc2)nc(N[C@@H]2C[C@H](CO)[C@@H](O)[C@H]2O)c1-c1nc2c(C3CC3)nccc2s1 [Example 1401] | < 0.5
Cc1nc(NC2CC2)nc(N[C@@H]2C[C@H](CO)[C@@H](O)[C@H]2O)c1-c1nc2c(C3CC3)nccc2s1 [Example 1402] | < 0.5
COc1cc(CNc2nc(C)c(-c3nc4ccccc4s3)c(N[C@H]3C[C@@H](CO)[C@H](O)[C@@H]3O)n2)cc(OC)c1 [Example 1501] | 0.5 to 5

SMILES | EC90 [µM]
Cc1nc(NCC(C)(C)C)nc(N[C@H]2C[C@@H](CO)[C@H](O)[C@@H]2O)c1-c1nc2ccccc2s1 [Example 1502] | > 5
Cc1nc(NC2CCC2)nc(N[C@@H]2C[C@H](CO)[C@@H](O)[C@H]2O)c1-c1nc2ccccc2s1 [Example 1503] | 0.5 to 5
CCOCCNc1nc(C)c(-c2nc3c(CC)nccc3s2)c(N[C@@H]2C[C@H](CO)[C@@H](O)[C@H]2O)n1 [Example 1504] | < 0.5
CCc1nccc2sc(-c3c(C)nc(N[C@H](C)C4CC4)nc3N[C@@H]3C[C@H](CO)[C@@H](O)[C@H]3O)nc12 [Example 1505] | < 0.5
CC(=O)NC[C@H]1C[C@@H](Nc2nc(NCC(F)(F)F)nc(C)c2-c2nc3ccccc3s2)[C@H](O)[C@@H]1O [Example 1506] | 0.5 to 5
Cc1nc(NCC(F)(F)F)nc(N[C@@H]2C[C@H](CNS(C)(=O)=O)[C@@H](O)[C@H]2O)c1-c1nc2ccccc2s1 [Example 1507] | < 0.5
Cc1nc(NCC(F)(F)F)nc(N[C@@H]2C[C@H](CNC(=O)CO)[C@@H](O)[C@H]2O)c1-c1nc2ccccc2s1 [Example 1508] | 0.5 to 5
Cc1nc(NCC(F)(F)F)nc(N[C@@H]2C[C@H](CO)[C@@H](O)[C@H]2O)c1-c1nc2ccccc2o1 [Example 1509] | < 0.5
Cc1nc(NCC2CC2)nc(N)c1-c1nc2cnccc2s1 [Example 1510] | 0.5 to 5
Cc1ccc([C@@H](C)Nc2nc(C)c(-c3nc4cnccc4s3)c(N)n2)cc1 [Example 1511] | < 0.5
Cc1nc(NCC(F)(F)F)nc(N[C@@H]2C[C@H](CNS(=O)(=O)CC(C)C)[C@@H](O)[C@H]2O)c1-c1nc2ccccc2s1 [Example 1512] | 0.5 to 5
Cc1nc(NCC(F)(F)F)nc(N[C@@H]2C[C@H](CNS(=O)(=O)C3CC3)[C@@H](O)[C@H]2O)c1-c1nc2ccccc2s1 [Example 1513] | 0.5 to 5
Cc1nc(NCC(F)(F)F)nc(NC2CCN(C(=O)OC(C)(C)C)CC2)c1-c1nc2ccccc2s1 [Example 1514] | > 5
Cc1nc(NCC(F)(F)F)nc(NC2CCN(C(=O)OC(C)(C)C)C2)c1-c1nc2ccccc2s1 (stereo not drawn) [Example 1515] | 0.5 to 5
Cc1nc(NCC(F)(F)F)nc(NC2CCNCC2)c1-c1nc2ccccc2s1 [Example 1516] | 0.5 to 5
Cc1nc(NCC(F)(F)F)nc(NC2CCNC2)c1-c1nc2ccccc2s1 (stereo not drawn) [Example 1517] | > 5
Cc1nc(NCC(F)(F)F)nc(N[C@@H]2C[C@H](CNS(=O)(=O)CCN)[C@@H](O)[C@H]2O)c1-c1nc2ccccc2s1 [Example 1518] | > 5
Cc1nc(NCC(F)(F)F)nc(N[C@@H]2C[C@H](CN)[C@@H](O)[C@H]2O)c1-c1nc2ccccc2s1 [Example 1519] | 0.5 to 5
Cc1nc(NCC(F)(F)F)nc(N[C@@H]2C[C@H](CNS(=O)(=O)CC(F)(F)F)[C@@H](O)[C@H]2O)c1-c1nc2ccccc2s1 [Example 1520] | 0.5 to 5
CCS(=O)(=O)NC[C@H]1C[C@@H](Nc2nc(NCC(F)(F)F)nc(C)c2-c2nc3ccccc3s2)[C@H](O)[C@@H]1O [Example 1521] | 0.5 to 5

SMILES | EC90 [µM]
COC(=O)NC[C@H]1C[C@@H](Nc2nc(NCC(F)(F)F)nc(C)c2-c2nc3ccccc3s2)[C@H](O)[C@@H]1O [Example 1522] | 0.5 to 5
Cc1nc(NCC(F)(F)F)nc(N[C@@H]2C[C@H](CNS(=O)(=O)C(F)(F)F)[C@@H](O)[C@H]2O)c1-c1nc2ccccc2s1 [Example 1523] | 0.5 to 5
Cc1nc(N[C@H](C)c2cccc(F)c2)nc(N[C@@H]2C[C@H](CO)[C@@H](O)[C@H]2O)c1-c1nc2c(C)nccc2s1 [Example 1524] | < 0.5
Cc1cccc([C@@H](C)Nc2nc(C)c(-c3nc4c(C)nccc4s3)c(N[C@@H]3C[C@H](CO)[C@@H](O)[C@H]3O)n2)c1 [Example 1525] | < 0.5
CCc1ccc([C@@H](C)Nc2nc(C)c(-c3nc4c(C)nccc4s3)c(N[C@@H]3C[C@H](CO)[C@@H](O)[C@H]3O)n2)cc1 [Example 1526] | < 0.5
Cc1ccccc1[C@@H](C)Nc1nc(C)c(-c2nc3c(C)nccc3s2)c(N[C@@H]2C[C@H](CO)[C@@H](O)[C@H]2O)n1 [Example 1527] | < 0.5
Cc1nc(N[C@H](C)c2ccc(OC(F)(F)F)cc2)nc(N[C@@H]2C[C@H](CO)[C@@H](O)[C@H]2O)c1-c1nc2c(C)nccc2s1 [Example 1528] | < 0.5
COc1ccc([C@@H](C)Nc2nc(C)c(-c3nc4c(C)nccc4s3)c(N[C@@H]3C[C@H](CO)[C@@H](O)[C@H]3O)n2)cc1 [Example 1529] | < 0.5
Cc1nc(N[C@H](c2ccc(-n3cccn3)cc2)C(F)(F)F)nc(N[C@@H]2C[C@H](CO)[C@@H](O)[C@H]2O)c1-c1nc2c(C)nccc2s1 [Example 1530] | > 5
Cc1nc(N[C@H](c2ccc(C(F)(F)F)cc2)C(F)(F)F)nc(N[C@@H]2C[C@H](CO)[C@@H](O)[C@H]2O)c1-c1nc2c(C)nccc2s1 [Example 1531] | > 5
Cc1nc(N)nc(N[C@@H]2C[C@H](CO)[C@@H](O)[C@H]2O)c1-c1nc2c(C)nccc2s1 [Example 1534] | > 5
CCCc1nccc2sc(-c3c(C)nc(NC4CC4)nc3N[C@@H]3C[C@H](CO)[C@@H](O)[C@H]3O)nc12 [Example 1535] | < 0.5
Cc1nc(NC2CC2)nc(N[C@@H]2C[C@H](CO)[C@@H](O)[C@H]2O)c1-c1nc2c(CC(C)C)nccc2s1 [Example 1537] | < 0.5
Cc1nc(NCC(F)(F)F)nc(N[C@@H]2C[C@H](Cn3ccnn3)[C@@H](O)[C@H]2O)c1-c1nc2ccccc2s1 [Example 1538] | < 0.5
Cc1ccccc1[C@H](Nc1nc(C)c(-c2nc3c(C)nccc3s2)c(N[C@@H]2C[C@H](CO)[C@@H](O)[C@H]2O)n1)C(F)(F)F [Example 1539] | < 0.5
COc1ccc([C@H](Nc2nc(C)c(-c3nc4c(C)nccc4s3)c(N[C@@H]3C[C@H](CO)[C@@H](O)[C@H]3O)n2)C(F)(F)F)cc1 [Example 1540] | < 0.5
Cc1nc(N[C@@H](c2ccc(-n3cccn3)cc2)C(F)(F)F)nc(N[C@@H]2C[C@H](CO)[C@@H](O)[C@H]2O)c1-c1nc2c(C)nccc2s1 [Example 1541] | < 0.5
Cc1nc(N[C@H](C)c2ccc(OC(F)(F)F)cc2)nc(N[C@@H]2CC[C@@H](O)[C@@]2(C)O)c1-c1nc2cnccc2s1 [Example 1542] | 0.5 to 5
Cc1nc(NC2CC2)nc(N[C@@H]2C[C@H](CO)[C@@H](O)[C@H]2O)c1-c1nc2c(C)nccc2s1 [Example 1543] | < 0.5
Cc1nc(NC2CCC2)nc(N[C@@H]2C[C@H](CO)[C@@H](O)[C@H]2O)c1-c1nc2c(C)nccc2s1 [Example 1544] | < 0.5
